Results: US12564641B2 (EISAI R&D MANAGEMENT CO., LTD., priority 2019, dated 2026)
Entries after “also recorded” stand apart in the source; their conditions may differ. Read-outs that look alike come from different tables or passages of the source.

Assays:
[1] = tested on: cynomolgus monkey mesothelin; experiment: BIAcore binding affinity, cynomolgus monkey mesothelin (Example 10)
Procedure: (§1) Binding affinity: Binding measurements were performed in HBS-P+ buffer on a BIAcore T-100 instrument. Antibodies were diluted to 1 μg/mL in HBS-P+. Samples were centrifuged at 14,000×g for 5 min at room temperature and then supernatants were transferred to a new 1.5 mL BIAcore tube and capped. Mesothelin (50 μg) was diluted to 100 nM in 1×HBS-P+ buffer, then serial diluted 5-fold at 100, 20, 4, 0.8, and 0.16 nM in BIAcore tubes and capped. Anti-human antibody capture chip was prepared according to the manufacturer's protocol using a CM5 chip with immobilization wizard. Final capture antibody levels were 8000-9000RU, in HBS-P+. Chip was prepared for assay with five cycles of 300 sec buffer injection followed by 30 sec regeneration, all at 30 μL/min across all four flow cells.
(§2) Antibodies were captured on flow cells 2-4 by sequential injections of individual ligand solutions for 90 sec at 10 μL/min. Analyte injection was done in a single-cycle kinetics manner by sequential injections of analyte solutions from low to high concentration for 240 sec each at 30 μL/min. Detection was 2-1, 3-1, 4-1. Double-referencing was performed by a sequence of identical ligand capture injections, followed by 5 buffer-only injections for 240 sec each, dissociation for 1800 sec, and regeneration as above. All ligands were analyzed for binding to mesothelin in duplicate. […]

[2] = Concentration of purified humanized 345A12 antibodies to 5 mg/mL; type: physicochemical; conditions: purified antibody in 1×DPBS
Procedure: The super-humanized 345A12 antibodies were purified from 350 mL of scale-up cell culture and formulated in 1×DPBS. The antibodies were concentrated for physical-chemical property evaluation.

[3] = SEC-HPLC aggregation analysis; type: physicochemical; conditions: Table 21, humanized 345A12
Procedure: SEC-HPLC analysis was conducted using Agilent 1200 HPLC system.
Aggregation of LCcys80 ADCs was analyzed by size-exclusion, high-performance liquid chromatography (SEC-HPLC) using an Agilent 1200 HPLC. Antibodies and ADCs were prepared at 2 mg/mL in 1×DPBS, 8 μL (16 μg) of each sample was injected and run for 36 min. All data were analyzed using Agilent ChemStation software. Percent aggregation, percent monomer, and percent fragmentation were reported.

[4] = Capillary isoelectric focusing (cIEF) analysis; type: physicochemical
Procedure: Auto-sampler reagents were filled according to the CFR installation and start-up procedures. Hemoglobin was used as system stability standard. Default settings for batch data analysis was used. Focus period #1 was performed for 1 min at 1,500 V for both the system suitability standards and samples. Focus period #2 was performed for 5 min at 3,000 V for the system suitability standards and 11 min at 3,000 V for the TIGC samples and matched buffer controls. Duplicate TIGC samples used Focus period #2 at 4.5 min and all samples were bracketed with a system suitability standard. Samples were automatically integrated using a peak width parameter of 0.1 and threshold of 5 and integrated between pI 7.5-9.4.

[5] = biological target: T1, rat mesothelin (Rattus norvegicus, UniProt Q9ERA7); experiment: BIAcore binding affinity, rat mesothelin (Example 10)
T1 sequence (Q9ERA7 36-600): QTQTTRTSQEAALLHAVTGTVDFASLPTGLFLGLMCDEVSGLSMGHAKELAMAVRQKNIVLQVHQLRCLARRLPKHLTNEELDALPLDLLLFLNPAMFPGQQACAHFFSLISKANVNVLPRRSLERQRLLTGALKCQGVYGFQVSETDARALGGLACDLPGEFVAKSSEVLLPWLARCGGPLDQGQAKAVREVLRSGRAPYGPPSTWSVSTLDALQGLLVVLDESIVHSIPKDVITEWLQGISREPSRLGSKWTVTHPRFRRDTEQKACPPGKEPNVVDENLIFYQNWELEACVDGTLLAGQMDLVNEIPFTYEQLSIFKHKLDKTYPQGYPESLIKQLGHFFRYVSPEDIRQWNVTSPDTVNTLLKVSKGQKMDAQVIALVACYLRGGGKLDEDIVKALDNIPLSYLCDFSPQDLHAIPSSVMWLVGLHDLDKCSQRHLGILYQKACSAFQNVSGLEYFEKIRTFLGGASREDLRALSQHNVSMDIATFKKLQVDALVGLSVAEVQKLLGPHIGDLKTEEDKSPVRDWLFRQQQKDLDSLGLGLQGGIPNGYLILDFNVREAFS
Procedure: as §1, §2

[6] = tested on: MSLN-positive cell lines; experiment: In vitro cytotoxicity (IC50, Crystal Violet) on MSLN-positive cell lines (Example 11); conditions: for IC50: read-out: In vitro cell based potency, IC50
Procedure: Cytotoxicity: Cells were sub-cultured and seeded at 5,000 cells/well in complete growth medium in 96-well tissue culture plates, and incubated at 37° C., 5% CO2 overnight (16 hours). Test reagents were serially diluted 1:3 in 2 mL deep-well dilution plates, starting at 200 nM (10 dilutions total). Diluted samples (100 μL) were added to the cell plates (starting concentration of test samples at 100 nM). Plates were incubated at 37° C. 5% CO2 for an additional 5 days. Medium was then discarded, and plates were washed once with 200 μL DPBS, stained with 50 μL of 0.2% Crystal Violet solution at room temperature for 15 min, and then washed extensively with tap water. Plates were air-dried, and Crystal Violet was dissolved with 200 μL of 1% SDS solution. Plates were read at 570 nm. Data was analyzed for IC50 determination using GraphPad Prism 6.

[7] = tested on: MSLN-negative cell lines; experiment: In vitro cytotoxicity (IC50, Crystal Violet) on MSLN-negative cell lines (Example 11); type: cell-based; conditions: for IC50: read-out: In vitro cell based potency, IC50
Procedure: Plates were incubated at 37° C. 5% CO2 for an additional 5 days. […] Plates were read at 570 nm.

[8] = tested on: human gastric cancer NCI-N87 xenograft; experiment: Human gastric cancer NCI-N87 xenograft model (Example 15); type: in vivo, mouse; conditions: 5 mg/kg
Procedure: (§3) 100 μL/mouse of the mixture was injected subcutaneously.

[9] = tested on: human NSCLC PDX LXFL-529; experiment: Human NSCLC PDX model LXFL-529; conditions: 12.5 mg/kg i.v.
Excerpt: (§4) Animals: Female NMRI nu/nu mice, 4 to 6 weeks of age.
Xenotransplantation: LXFL-529 established growing tumor (T3N1M0) from a primary non-small cell lung adenocarcinoma human patient.
(§5) Experimental procedure: Animals were monitored until the tumor implants reached the study volume criteria of 50-250 mm^3 (e.g., 80-200 mm^3) in a sufficient number of animals. […] The process of the assignment to groups (enrollment, stratified randomization) may also be referred to as randomization. The day of randomization was designated as day 0 of the experiment.
(§6) Tumors were measured and mice were weighed twice a week during the experimental period. The first day of dosing was day 1, one day after randomization (day 0).

[10] = tested on: human mesothelioma PDX Meso7212; experiment: Human mesothelioma PDX model Meso7212 (Example 17); type: in vivo, mouse; conditions: 10 mg/kg single dose i.v.
Procedure: Xenotransplantation: On day 0. Meso 7212 tumors were removed from the five donor mice under sterile conditions.
Experimental procedure: After the xenotransplantation, the engraftment and the propagation of the tumor in the mice were controlled at least twice weekly by palpation. When the tumor was palpable, the measurements of tumor diameters were performed with a digital caliper (Mitutoyo).
From the first treatment day onwards, tumor volumes and body weights were recorded twice weekly. The animal welfare was controlled twice daily.
Treatment: All agents were administered intravenously as a single dose on the day of randomization. Animals in the control group were treated with DPBS in the same manner.

[11] = tested on: human mesothelioma HAY xenograft; experiment: Human mesothelioma HAY xenograft model (Example 16); type: in vivo, mouse; conditions: 5 mg/kg
Procedure: as §3

[12] = tested on: MSLN-expressing CHO cells; experiment: ADCC activity, luciferase assay with Jurkat-Effector cells; type: cell-based
Procedure: MSLN-expressing CHO cells were thawed and seeded 1.000 cells/well (25 μL) in 96-well tissue culture plates in complete RPMI-4% Ultralow IgG FBS. […] 6,000 Jurkat-Effector cells (Promega) were thawed and added (25 μL) to the cell plate, and the plate was incubated at 37° C. 5% CO2 for 18-22 hours.
Luciferase assay reagent was thawed in the dark. 75 μL of luciferase assay reagent was added to each well, plates were shaken for 30 sec on a plate shaker. Plates were read on a luminometer after 5 min incubation.

[13] = tested on: human NSCLC PDX LXFA-586; experiment: Human NSCLC PDX model LXFA-586; conditions: 25 mg/kg single dose i.v.
Excerpt: as §4
Xenotransplantation: LXFA-586 established growing tumor (T2N1M0) from a primary non-small cell lung adenocarcinoma human patient.
as §5, with “mmi)” for “mm^3)”
as §6

[14] = biological target: mesothelin (Homo sapiens, UniProt Q13421); experiment: Surface plasmon resonance (BIAcore) binding analysis of anti-mesothelin antibodies; conditions: Table 15; rabbit-human chimeric antibodies, individual curves
Procedure: Anti-mesothelin antibody binding affinity to mesothelin was measured by BIAcore (BIAcore T-100, GE healthcare, #1426075), using a series S CM5 chip. Antibody concentrations were adjusted to 1 μg/mL and mesothelin (50 μg) to 100 nM in 1×HBS-P+ buffer (GE Healthcare). Anti-human antibody capture chip was prepared according to the manufacturer's protocol using a CM5 chip with immobilization wizard. Final capture antibody levels were 8000-9000 RU, in HBS-P+. Chip was prepared for assay with five cycles of 300 sec buffer injection followed by 30 sec regeneration, all at 30 μL/min across all four flow cells. Antibodies were captured on flow cells 2-4 by sequential injections of individual ligand solutions for 90 sec at 10 μL/min. Analyte injection was done in a single-cycle kinetics manner by sequential injections of analyte solutions from low to high concentration for 240 sec each at 30 μL/min. Detection was 2-1, 3-1, 4-1. Double-referencing was performed by a sequence of identical ligand capture injections, followed by 5 buffer-only injections for 240 sec each, dissociation for 1800 sec, and regeneration as above. All ligands were analyzed for binding to mesothelin in duplicate. Kinetic analysis was performed using BIAEvaluations software using a 1:1 Langmuir fitting model. On-rate, off-rate, and affinity constants were averaged from duplicate runs.

[15] = NCI-H292 cells (MSLN MFI 108.6)
[16] = NCI-H1568/MSLN cells (MSLN MFI 4474.00)
[17] = OVCAR3-A1 cells (MSLN MFI 220.0)
[18] = Table 34: BAY 94-9343 and anetumab, MSLN-expressing CHO cells, Jurkat-Effector cells

Chain of mesothelin (Q13421 with tags, fused parts or gaps): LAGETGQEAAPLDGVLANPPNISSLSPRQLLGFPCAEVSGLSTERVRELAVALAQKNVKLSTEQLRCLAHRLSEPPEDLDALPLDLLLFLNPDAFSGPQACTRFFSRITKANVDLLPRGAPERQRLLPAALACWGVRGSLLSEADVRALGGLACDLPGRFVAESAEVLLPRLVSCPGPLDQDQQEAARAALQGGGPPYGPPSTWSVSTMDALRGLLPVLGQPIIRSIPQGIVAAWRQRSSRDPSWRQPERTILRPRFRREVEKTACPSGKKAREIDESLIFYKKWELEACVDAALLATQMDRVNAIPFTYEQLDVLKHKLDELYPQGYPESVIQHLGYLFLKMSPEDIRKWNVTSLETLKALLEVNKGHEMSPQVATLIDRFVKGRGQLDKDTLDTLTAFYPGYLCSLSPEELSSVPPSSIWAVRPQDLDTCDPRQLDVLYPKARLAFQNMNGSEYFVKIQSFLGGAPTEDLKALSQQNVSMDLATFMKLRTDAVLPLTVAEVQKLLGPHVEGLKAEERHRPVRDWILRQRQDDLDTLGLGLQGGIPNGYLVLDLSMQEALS

binding to cynomolgus monkey mesothelin [1] | binding to rat mesothelin [5] | Compound | % Max Killing [6, 15] [%] | % Max Killing [6, 16] [%] | % Max Killing [6, 17] [%] | IC50 [6, 15] [nM] | IC50 [6, 16] [nM] | IC50 [6, 17] [nM] | % Max Killing ([7]; A431 cells (MSLN MFI 5.6)) [%] | IC50 ([7]; A431 cells (MSLN MFI 5.6)) [nM] | % Max Killing ([7]; BxPC3 cells (MSLN MFI 15.59)) [%] | IC50 ([7]; BxPC3 cells (MSLN MFI 15.59)) [nM] | % Max Killing ([7]; SKOV3 cells (MSLN MFI 20)) [%] | IC50 ([7]; SKOV3 cells (MSLN MFI 20)) [nM] | ADCC activity [12, 18] [%] | further results
retained binding affinity | Nether antibody bound | 345A12-HC15-LC4: anti-mesothelin antibody, heavy chain SEQ ID NO: 17, light chain SEQ ID NO: 18; antibody in MORAb-109 |  |  |  |  |  |  |  |  |  |  |  |  |  | Concentration to 5 mg/mL [2]: Yes; Aggregation % Monomer [3]: 86.56%; % Acidic Peaks [4]: 34.787%; % Basic Peaks [4]: 14.424%; % Neutral Peak [4]: 50.790%; pI [4]: 8.25
 |  | COc1cc2cc(c1Cl)N(C)C(=O)C[C@H](OC(=O)[C@H](C)N(C)C(=O)CCC(C)(C)S)[C@]1(C)O[C@H]1[C@H](C)[C@@H]1C[C@@](O)(NC(=O)O1)[C@H](OC)/C=C/C=C(\C)C2 [DM4] | 92.40 | 77.49 | 100.00 | 0.24 | 0.57 | 0.1 | 92.52 | 0.71 | 97.98 | 0.57 | 81.89 | 0.28 |  | 
 |  | BAY 94-9343: ADC comprising anetumab conjugated to the maytansinoid tubulin inhibitor DM4 via a reducible SPDB linker | 64.15 | 75.10 | 100.00 | 3.07 | 0.15 | 0.41 | 96.82 | 5.31 | 97.33 | 2.53 | 74.99 | 0.81 | 65.06 | body weight change [8]: No body weight loss; cytotoxicity on MSLN-positive cell lines [6]: killing on both MSLN-positive and MSLN-negative cell lines; anti-tumor efficacy [9]: no anti-tumor efficacy; cytotoxicity on MSLN-negative cell lines [7]: killing on both MSLN-positive and MSLN-negative cell lines; also recorded: relatively high levels of cytotoxicity; anti-tumor effect [10]: tumor regression; body weight change [10]: No body weight loss; body weight change [11]: No body weight loss; ADCC activity [12]: weaker ADCC activity than anetumab; Tq (tumor volume quadrupling time) [13]: not reached; anti-tumor efficacy [13]: robust anti-tumor efficacy similar to MORAb-109
 |  | MORAb-009: known anti-mesothelin antibody, MORAb-009 (Amatuximab) |  |  |  |  |  |  |  |  |  |  |  |  |  | Kd [14]: 0.15 nM; ka [14]: 1.95e+06 M⁻¹ s⁻¹; kd [14]: 0.000292 s⁻¹
did not bind | Nether antibody bound | anetumab: a human anti-mesothelin antibody | 15.15 | 5.50 | 19.80 | > 300 | > 100 | > 100 | 18.58 | > 300 | 25.73 | > 300 | 31.55 | > 300 | 100 | 
